Measured values taken from ChEMBL document CHEMBL1201862, “PubChem BioAssay data set” (2004).
Blank lines part the entries; values can stand above or below the compound they belong to. Activity calls are given as the source filed them.

Legend:
[1] = target: T1, Estrogen receptor (Homo sapiens, UniProt P03372); assay: potentiators of ERα–SRC-1 coactivator binding, dose response, biochemical, TR-FRET, ERα LBD (AID 737)
T1 sequence (P03372 whole entry): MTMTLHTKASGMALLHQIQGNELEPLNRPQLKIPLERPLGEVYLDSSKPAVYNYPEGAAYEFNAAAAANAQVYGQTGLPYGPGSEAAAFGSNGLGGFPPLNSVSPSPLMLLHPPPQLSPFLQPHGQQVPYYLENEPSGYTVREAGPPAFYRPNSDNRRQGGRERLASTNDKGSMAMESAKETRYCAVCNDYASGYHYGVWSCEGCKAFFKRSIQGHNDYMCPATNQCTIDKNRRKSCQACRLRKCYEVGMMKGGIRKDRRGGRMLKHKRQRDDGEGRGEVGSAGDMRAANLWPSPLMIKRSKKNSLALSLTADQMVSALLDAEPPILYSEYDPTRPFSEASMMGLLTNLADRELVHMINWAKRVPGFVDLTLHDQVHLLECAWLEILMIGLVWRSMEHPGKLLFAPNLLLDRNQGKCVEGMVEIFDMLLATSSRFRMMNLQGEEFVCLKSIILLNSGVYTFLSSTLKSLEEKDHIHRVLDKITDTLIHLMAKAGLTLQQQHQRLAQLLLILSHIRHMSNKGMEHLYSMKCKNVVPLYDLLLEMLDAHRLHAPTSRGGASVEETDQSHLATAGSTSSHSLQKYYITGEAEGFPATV

[2] = miR-122 activators in hepatoma reporter cells, dose response, cell-based, Huh7 psiCHECK-miR122, Renilla luciferase, cherry-picked (AID 651956); type: functional;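 note: huh7 hepatoma cells stably carrying a psiCHECK-2 miR-122 sensor plasmid; renilla luciferase signal reporting endogenous miR-122 activity after 48 h compound exposure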
[3] = HEK293T cytotoxicity, dose response, cytotoxicity control for miR-122 modulator project, cell-based, inhibitor set, cherry-pick, set 2 (AID 720697); type: functional
[4] = system: HEK293; assay: Fluorescence-based counterscreen for potentiators or agonists of NPY-Y2: cell-based high-throughput dose response assay to identify inhibitors of cyclic nucleotide gated ion channel (CNGC) activity. In this assay, the parental HEK293 cell line transfected with a cyclic-nucleotide gated ion channel (CNGC)-based cAMP sensor is used to measure inhibition of isoproterenol-induced CNGC activity by test compound.; type: functional; details: Homo sapiens;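 note: stimulus is 1 µM isoproterenol at EC100 plus PDE inhibitor Ro 20-1724 at 25 µM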
[5] = off-target signal loss in HeLa-CEM21 co-culture – HeLa F-luc CTL cells, cherry-picked, counter-screen for HIV-1 Env fusion inhibitor project, dose response (AID 652040); type: functional, cell-based;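 note: potency for signal decrease marking cytotoxic or nonspecific inhibition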
[6] = HEK293T cytotoxicity, dose response, cytotoxicity control for miR-122 modulator project, cell-based, activator set, cherry-pick (AID 720690); type: functional;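 note: HEK293T human cells scored for general mammalian cytotoxicity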
[7] = target: T2, Neuropeptide Y receptor type 1 (Homo sapiens, UniProt P25929); assay: Fluorescence-based counterscreen for agonists of NPY-Y2: cell-based high-throughput dose response assay for agonists of NPY-Y1.; type: functional
[8] = system: INS1; assay: beta cell apoptosis inhibitors, cytokine rescue, dose response, luminescence, retest (AID 449756); type: functional, cell-based; details: Rattus norvegicus;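 note: cell death triggered by IL-1 beta plus TNF-alpha plus IFN-gamma mixture; protective hits raise ATP signal compared with cytokine alone wells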
[9] = target: Galanin receptor type 2 (Homo sapiens, UniProt O43603); assay: Dose Response cell-based high-throughput screening assay to identify antagonists of galanin receptor 2 (GALR2). [Related pubchem assays: 828, 866 ]; type: functional
[10] = target: T3, Neuropeptide Y receptor type 2 (Homo sapiens, UniProt P49146); assay: Fluorescence-based cell-based high-throughput dose response assay for agonists of NPY-Y2. [Related pubchem assays: 1703 (Screening assay (CNGC inhibitors).), 1359 (Screening assay (NPY-Y2 potentiators or agonists).), 1304 (Screening assay (NPY-Y1 potentiators or agonists).), 1710 (Screening assay (NPY-Y2 agonists).), 1791 (Summary AID.)]; type: functional
[11] = target: T4, COUP transcription factor 2 (Homo sapiens, UniProt P24468); assay: Luminescence-based cell-based high throughput dose response assay to identify inhibitors of COUP-TFII (NR2F2).; type: functional;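 note: HEK293 cells transiently cotransfected with COUP-TFII expression vector and reporter; luciferase reporter luminescence driven by COUP-TFII from the pX2-168 reporter plasmid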
T4 sequence (P24468 whole entry): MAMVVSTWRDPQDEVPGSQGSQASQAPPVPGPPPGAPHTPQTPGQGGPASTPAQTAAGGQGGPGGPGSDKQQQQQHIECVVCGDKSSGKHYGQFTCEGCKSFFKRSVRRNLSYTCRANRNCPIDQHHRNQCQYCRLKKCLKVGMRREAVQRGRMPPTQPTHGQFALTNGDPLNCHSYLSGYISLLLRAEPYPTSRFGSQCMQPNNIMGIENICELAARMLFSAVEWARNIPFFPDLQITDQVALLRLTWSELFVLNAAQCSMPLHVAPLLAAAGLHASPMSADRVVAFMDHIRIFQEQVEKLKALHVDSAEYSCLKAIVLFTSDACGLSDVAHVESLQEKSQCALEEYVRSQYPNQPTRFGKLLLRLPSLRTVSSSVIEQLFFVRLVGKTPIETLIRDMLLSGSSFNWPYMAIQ

[12] = inhibitors of clade B AD8 Env fusion, dose response, cell-based, cherry-pick (AID 652062); type: functional;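 note: luciferase signal from cell-cell fusion driven by HIV-1 clade B AD8 Env; potency is for inhibitors of fusion seen as a drop in luminescence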
[13] = system: H9c2; assay: cells; type: functional, cell-based; details: Rattus norvegicus, H9c2, Myocardium;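 note: confirmatory concentration-response retest of ultra-high-throughput screening hits for modulation of myocardial damage; cell death induced by hydrogen peroxide oxidative stress; compound pretreatment for 60 min then peroxide exposure for 2 h; potency is for protecting the cells against peroxide damage rather than for killing them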
[14] = growth induction of Burl-1 ts yeast mutant, dose response, counter-screen for SUMOylation pathway inhibitor project, whole organism, S. cerevisiae, luminescence (AID 463199); type: functional
[15] = target: T3, Neuropeptide Y receptor type 2; type: functional, cell-based
[16] = target: T2, Neuropeptide Y receptor type 1; type: functional

T3 sequence (P49146 whole entry): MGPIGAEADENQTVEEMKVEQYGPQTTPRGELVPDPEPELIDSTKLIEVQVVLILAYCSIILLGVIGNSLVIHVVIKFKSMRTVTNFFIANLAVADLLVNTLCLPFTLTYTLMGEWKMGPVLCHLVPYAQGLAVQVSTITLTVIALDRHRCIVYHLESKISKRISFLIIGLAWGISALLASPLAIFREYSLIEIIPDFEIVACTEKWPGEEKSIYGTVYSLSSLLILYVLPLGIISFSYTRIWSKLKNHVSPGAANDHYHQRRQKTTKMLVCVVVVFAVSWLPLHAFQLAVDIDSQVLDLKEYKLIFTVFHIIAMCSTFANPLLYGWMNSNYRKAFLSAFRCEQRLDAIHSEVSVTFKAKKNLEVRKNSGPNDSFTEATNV
T2 sequence (P25929 whole entry): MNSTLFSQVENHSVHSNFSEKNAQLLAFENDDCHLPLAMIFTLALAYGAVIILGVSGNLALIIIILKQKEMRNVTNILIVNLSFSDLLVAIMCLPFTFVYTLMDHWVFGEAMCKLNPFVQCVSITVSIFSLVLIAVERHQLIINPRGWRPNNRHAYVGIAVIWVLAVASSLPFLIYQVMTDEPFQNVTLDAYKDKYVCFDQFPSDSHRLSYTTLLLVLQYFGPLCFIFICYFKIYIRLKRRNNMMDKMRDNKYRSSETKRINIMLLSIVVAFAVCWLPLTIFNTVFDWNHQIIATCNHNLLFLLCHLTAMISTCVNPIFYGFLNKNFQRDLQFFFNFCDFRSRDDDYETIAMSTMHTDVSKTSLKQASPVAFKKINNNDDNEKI
Galanin receptor type 2, sequence (O43603 whole entry): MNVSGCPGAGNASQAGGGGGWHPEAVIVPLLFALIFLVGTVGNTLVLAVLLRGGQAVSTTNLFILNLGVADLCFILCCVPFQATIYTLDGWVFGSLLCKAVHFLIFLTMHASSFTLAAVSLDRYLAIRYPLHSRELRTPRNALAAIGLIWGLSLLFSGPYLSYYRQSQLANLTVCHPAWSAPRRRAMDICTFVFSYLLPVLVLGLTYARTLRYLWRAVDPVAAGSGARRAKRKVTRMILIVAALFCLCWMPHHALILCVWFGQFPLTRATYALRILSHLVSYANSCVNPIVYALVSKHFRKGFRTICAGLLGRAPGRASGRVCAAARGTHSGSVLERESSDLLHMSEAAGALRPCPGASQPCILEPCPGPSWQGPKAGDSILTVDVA

- EC50 [1]: 6.97 µM (active)
Compound: Cc1cc(C(=O)CSc2nnc(-c3ccccc3F)o2)c(C)n1Cc1cccs1

Compound: CC(=O)c1c(C)[nH]c(C(=O)OCCCCN2C(=O)c3ccccc3C2=O)c1C
- AC50 [2]: 38.4 µM (active)
- AC50 [3]: 7.33 µM (active)
- EC50 [4]: > 35.4 µM (not active)
- AC50 [5]: > 70 µM (inactive)
- AC50 [6]: 12.5 µM (active)
- EC50 [7]: > 35.4 µM (not active)
- AC50 [8]: 6.57 µM (active)
- IC50 [9]: > 42 µM (not active)
- EC50 [10]: > 35.4 µM (not active)
- IC50 [11]: 7.55 µM (active)
- AC50 [12]: 6.13 µM (active)

Compound: O=C(Nc1cccc(/N=C/c2cc(Br)cc(Br)c2O)c1)c1ccco1
- IC50 [13]: 10.8 µM (active)
- AC50 [14]: 57.9 µM (active)
- IC50 [15]: > 35 µM (not active)
- IC50 [16]: > 35 µM (not active)
